The values that follow come from US10351565B2, “Therapeutic compounds for pain and synthesis thereof” (priority 2015, dated 2019).

Where “and” joins values, the source holds several entries; their conditions need not be identical. Equal values may be shown once. Some results are limits rather than exact numbers.

The subject of experiment [1] is neuropathic pain in mice. Nature of the experiment: Taxol mouse model of neuropathic pain, repeated daily administration. In kind it is in vivo. The source says:
(§1) Table 7 summarizes the activity of Formula 1 in mice models of neuropathic pain following repeated daily administration using different routes of administration.

Experiment [2] deals with neuropathic pain in mice. As to the kind of experiment: CCI mouse model of neuropathic pain, repeated daily administration. The experiment is classed as in vivo. The conditions noted are these: for Dose of maximum activity: doses tested 150 mg/kg.
Text: as §1

Setting [3] is: SC, 150 mg/kg, repeated daily administration.
[4] abbreviates: PO, 30 mg/kg, repeated daily administration.
Setting [5] is: SC, doses tested 1, 3, 10 mg/kg, repeated daily administration.

For the compound `NCC1(CC(=O)O)CCCCC1` [Gabapentin], the “Dose of maximum activity” value in experiment [1] (PO, doses tested 150 mg/kg) is reported as 150 mg/kg; in experiment [1] (SC, doses tested 150 mg/kg) it was 150 mg/kg; in experiment [2] (IP) it was 150 mg/kg; in experiment [2] (SC), 150 mg/kg. The “Duration of activity at maximum effect” value in experiment [2] (setting [3]) was 4-6 H. Moreover, in experiment [2] (setting [3]), the “Level of activity (% of maximum effect- baseline)” value was >100% and 64%. In addition, the “Peak of activity (T)” value in experiment [2] (setting [3]) was 2-3 H.

On to `COc1ccc2cc(CN3[C@@H]4C[C@@H]5C[C@H]3[C@H](OC(=O)C(C)(C)C)C4N(C(=O)CC(F)(F)F)C5)ccc2c1` (stereo partly drawn) [Formula 1, (2S,3S,6R,7aR)-1-((6-methoxynaphthalen-2-yl)methyl)-4-(3,3,3-trifluoropropanoyl)octahydro-1H-2,6-methanopyrrolo[3,2-b]pyridin-3-yl pivalate], for which, in experiment [1] (setting [4]), the “Duration of activity at maximum effect” value was found to be 24 H, the “Level of activity (% of maximum effect- baseline)” value is 100% and the “Peak of activity (T)” value is recorded as 2-24 H. For the same compound, in experiment [1] (PO, doses tested 30 mg/kg), the “Dose of maximum activity” value is listed as less than 30 mg/kg. In addition, the “Dose of maximum activity” value in experiment [1] (SC, doses tested 1, 3, 10 mg/kg) is recorded as 1 mg/kg. In experiment [1] (setting [5]), the “Duration of activity at maximum effect” value was 24 h and the “Level of activity (% of maximum effect- baseline)” value amounted to 100%.
